Assay results published in US20080167314A1, “Condensed Imidazole Compound And Use Thereof” (priority 2004, published 2008).

SMILES	melting point [°C]
Cc1cc(-c2nc3cccnn3c2-c2ccnc(NC(N)=O)c2)ccc1F [Example 51-9, N-{4-[2-(4-fluoro-3-methylphenyl)imidazo[1,2-b]pyridazin-3-yl]pyridin-2-yl}urea]	254 to 255
Cc1cc(-c2nc3cccnn3c2-c2ccnc(NC(=O)NC3CCC(O)CC3)c2)ccc1F (stereo not drawn) [Example 51-10, N-{4-[2-(4-fluoro-3-methylphenyl)imidazo[1,2-b]pyridazin-3-yl]pyridin-2-yl}-N′-(4-hydroxycyclohexyl)urea]	218 to 220
Cc1cc(-c2nc3cccnn3c2-c2ccnc(NC(=O)NCC(C)O)c2)ccc1F (stereo not drawn) [Example 51-13, N-{4-[2-(4-fluoro-3-methylphenyl)imidazo[1,2-b]pyridazin-3-yl]pyridin-2-yl}-N′-(2-hydroxypropyl)urea]	139 to 140
Cc1cc(-c2nc3cccnn3c2-c2ccnc(NC(=O)NC3CCOCC3)c2)ccc1F [Example 51-15, N-{4-[2-(4-fluoro-3-methylphenyl)imidazo[1,2-b]pyridazin-3-yl]pyridin-2-yl}-N′-(tetrahydro-2H-pyran-4-yl)urea]	240 to 241
Cc1cccc(-c2nc3cccnn3c2-c2ccnc(NC(=O)NC3CCOCC3)c2)c1 [Example 52, N-{4-[2-(3-Methylphenyl)imidazo[1,2-b]pyridazin-3-yl]pyridin-2-yl}-N′-(tetrahydro-2H-pyran-4-yl)urea]	222
COc1ccc2nc(-c3ccc(F)c(C)c3)c(-c3ccnc(NC(=O)NC(C)C)c3)n2n1 [Example 53, N-{4-[2-(4-Fluoro-3-methylphenyl)-6-methoxyimidazo[1,2-b]pyridazin-3-yl]pyridin-2-yl}-N′-isopropylurea]	233 to 234
CSc1ccc2nc(-c3ccc(F)c(C)c3)c(-c3ccnc(NC(=O)NC(C)C)c3)n2n1 [Example 54, N-{4-[2-(4-Fluoro-3-methylphenyl)-6-(methylthio)imidazo[1,2-b]pyridazin-3-yl]pyridin-2-yl}-N′-isopropylurea]	241 to 242
Cc1cc(-c2nc3cccnn3c2-c2ccnc(N3CCCNC3=O)c2)ccc1F [Example 55, 1-{4-[2-(4-Fluoro-3-methylphenyl)imidazo[1,2-b]pyridazin-3-yl]pyridin-2-yl}tetrahydropyrimidine-2-(1H)-one]	213 to 215
Cc1cc(-c2nc3cccnn3c2-c2ccnc(NC(=O)CCS(C)(=O)=O)c2)ccc1F [Example 56, N-{4-[2-(4-Fluoro-3-methylphenyl)imidazo[1,2-b]pyridazin-3-yl]pyridin-2-yl}-3-(methylsulfonyl)propanamide]	227 to 228
Cc1cc(-c2nc3cccnn3c2-c2ccnc(NC(=O)CS(C)(=O)=O)c2)ccc1F [Example 57-1, N-{4-[2-(4-fluoro-3-methylphenyl)imidazo[1,2-b]pyridazin-3-yl]pyridin-2-yl}-2-(methylsulfonyl)acetamide]	240 to 241
Cc1cc(-c2nc3c([S+](C)[O-])cc(Cl)nn3c2-c2ccnc(N)c2)ccc1F (stereo not drawn) [Example 57-2, 4-[6-chloro-2-(4-fluoro-3-methylphenyl)-8-(methylsulfinyl)imidazo[1,2-b]pyridazin-3-yl]-2-pyridylamine]	216 to 217
CC(=O)CNC(=O)Nc1cc(-c2c(-c3ccc(F)c(C)c3)nc3cccnn23)ccn1 [Example 63, N-{4-[2-(4-Fluoro-3-methylphenyl)imidazo[1,2-b]pyridazin-3-yl]pyridin-2-yl}-N′-(2-oxopropyl)urea]	208 to 209
Cc1cccc(-c2nc3ccc(Cl)nn3c2-c2ccnc(Nc3ccc(F)cc3C)c2)c1 [Example Compound 3-1, 4-[6-chloro-2-(3-methylphenyl)imidazo[1,2-b]pyridazin-3-yl]-N-(4-fluoro-2-methylphenyl)pyridin-2-amine]	191 to 192
Cc1cccc(-c2nc3ccc(Cl)nn3c2-c2ccnc(Nc3ccccc3C)c2)c1 [Example Compound 3-2, 4-[6-chloro-2-(3-methylphenyl)imidazo[1,2-b]pyridazin-3-yl]-N-(2-methylphenyl)pyridin-2-amine]	191 to 192
Cc1cccc(-c2nc3cccnn3c2-c2ccnc(NC3CCCCC3)c2)c1 [Example Compound 6-1, N-cyclohexyl-4-[2-(3-methylphenyl)imidazo[1,2-b]pyridazin-3-yl]pyridin-2-amine]	169 to 170
Cc1cccc(-c2nc3cccnn3c2-c2ccnc(NC3CCCC3)c2)c1 [Example Compound 6-2, N-cyclopentyl-4-[2-(3-methylphenyl)imidazo[1,2-b]pyridazin-3-yl]pyridin-2-amine]	130 to 131
Cc1cccc(-c2nc3cccnn3c2-c2ccnc(NC3CCC3)c2)c1 [Example Compound 6-3, N-cyclobutyl-4-[2-(3-methylphenyl)imidazo[1,2-b]pyridazin-3-yl]pyridin-2-amine]	152 to 153
COCCNc1cc(-c2c(-c3cccc(C)c3)nc3cccnn23)ccn1 [Example Compound 6-13, N-(2-methoxyethyl)-4-[2-(3-methylphenyl)imidazo[1,2-b]pyridazin-3-yl]pyridin-2-amine]	99 to 100
Cc1cccc(-c2nc3cccnn3c2-c2ccnc(NCCN3CCCCC3)c2)c1 [Example Compound 6-14, 4-[2-(3-methylphenyl)imidazo[1,2-b]pyridazin-3-yl]-N-[2-(piperidin-1-yl)ethyl]pyridin-2-amine]	143 to 144
Cc1cccc(-c2nc3cccnn3c2-c2ccnc(NCC3CCCO3)c2)c1 (stereo not drawn) [Example Compound 6-16, 4-[2-(3-methylphenyl)imidazo[1,2-b]pyridazin-3-yl]-N-(tetrahydrofuran-2-ylmethyl)pyridin-2-amine]	137 to 138
CCN(CC)CCNc1cc(-c2c(-c3cccc(C)c3)nc3cccnn23)ccn1 [Example Compound 6-19, N,N-diethyl-N′-{4-[2-(3-methylphenyl)imidazo[1,2-b]pyridazin-3-yl]pyridin-2-yl}ethane-1,2-diamine]	97 to 98

Further lines, results first:

melting point [°C]	SMILES
202 to 203	Cc1cccc(-c2nc3cccnn3c2-c2ccnc(NC3CC3)c2)c1 [Example Compound 6-4, N-cyclopropyl-4-[2-(3-methylphenyl)imidazo[1,2-b]pyridazin-3-yl]pyridin-2-amine]
176 to 177	Cc1cccc(-c2nc3cccnn3c2-c2ccnc(NCCO)c2)c1 [Example Compound 6-5, 2-({4-[2-(3-methylphenyl)imidazo[1,2-b]pyridazin-3-yl]pyridin-2-yl}amino)ethanol]
157 to 158	COc1ccccc1Nc1cc(-c2c(-c3cccc(C)c3)nc3cccnn23)ccn1 [Example Compound 6-6, N-(2-methoxyphenyl)-4-[2-(3-methylphenyl)imidazo[1,2-b]pyridazin-3-yl]pyridin-2-amine]
187 to 188	Cc1cccc(-c2nc3cccnn3c2-c2ccnc(Nc3cccc(C)c3C)c2)c1 [Example Compound 6-7, N-(2,3-dimethylphenyl)-4-[2-(3-methylphenyl)imidazo[1,2-b]pyridazin-3-yl]pyridin-2-amine]
213 to 214	Cc1ccc(Nc2cc(-c3c(-c4cccc(C)c4)nc4cccnn34)ccn2)cc1 [Example Compound 6-8, N-(4-methylphenyl)-4-[2-(3-methylphenyl)imidazo[1,2-b]pyridazin-3-yl]pyridin-2-amine]
195 to 196	Cc1cccc(Nc2cc(-c3c(-c4cccc(C)c4)nc4cccnn34)ccn2)c1 [Example Compound 6-9, N-(3-methylphenyl)-4-[2-(3-methylphenyl)imidazo[1,2-b]pyridazin-3-yl]pyridin-2-amine]
195 to 196	Cc1cccc(-c2nc3cccnn3c2-c2ccnc(NC3CCCc4ccccc43)c2)c1 (stereo not drawn) [Example Compound 6-12, 4-[2-(3-methylphenyl)imidazo[1,2-b]pyridazin-3-yl]-N-(1,2,3,4-tetrahydtonaphthalen-1-yl)pyridin-2-amine]
185 to 186	Cc1cccc(-c2nc3cccnn3c2-c2ccnc(NCc3cccs3)c2)c1 [Example Compound 6-15, 4-[2-(3-methylphenyl)imidazo[1,2-b]pyridazin-3-yl]-N-(2-thienylmethyl)pyridin-2-amine]
150 to 151	Cc1cccc(-c2nc3cccnn3c2-c2ccnc(NCc3ccco3)c2)c1 [Example Compound 6-17, N-(2-furylmethyl)-4-[2-(3-methylphenyl)imidazo[1,2-b]pyridazin-3-yl]pyridin-2-amine]
154 to 155	Cc1cccc(-c2nc3cccnn3c2-c2ccnc(N[C@@H](C)c3ccccc3)c2)c1 [Example Compound 6-21, 4-[2-(3-methylphenyl)imidazo[1,2-b]pyridazin-3-yl]-N-[(1S)-1-phenylethyl]pyridin-2-amine]
154 to 155	Cc1cccc(-c2nc3cccnn3c2-c2ccnc(N[C@H](C)c3ccccc3)c2)c1 [Example Compound 6-22, 4-[2-(3-methylphenyl)imidazo[1,2-b]pyridazin-3-yl]-N-[(1R)-1-phenylethyl]pyridin-2-amine]
193 to 194	Cc1cccc(-c2nc3cccnn3c2-c2ccnc(NCc3ccccc3)c2)c1 [Example Compound 6-23, N-benzyl-4-[2-(3-methylphenyl)imidazo[1,2-b]pyridazin-3-yl]pyridin-2-amine]
128 to 129	CCCCNc1cc(-c2c(-c3cccc(C)c3)nc3cccnn23)ccn1 [Example Compound 6-24, N-butyl-4-[2-(3-methylphenyl)imidazo[1,2-b]pyridazin-3-yl]pyridin-2-amine]
128 to 129	CCCNc1cc(-c2c(-c3cccc(C)c3)nc3cccnn23)ccn1 [Example Compound 6-25, 4-[2-(3-methylphenyl)imidazo[1,2-b]pyridazin-3-yl]-N-propylpyridin-2-amine]
151 to 153	CCNc1cc(-c2c(-c3cccc(C)c3)nc3cccnn23)ccn1 [Example Compound 6-26, N-ethyl-4-[2-(3-methylphenyl)imidazo[1,2-b]pyridazin-3-yl]pyridin-2-amine]
